Data on 3 molecules can be found in ChEMBL document CHEMBL2311537, “Antiviral activity of (+)-sattabacin against varicella zoster” (Bioorg Med Chem Lett, 2013).

Data set [1] has as its system MRC5. As to the kind of experiment: Effect on DDX27 gene expression in human MRC5 cells infected with Varicella zoster virus Ellen at 100 uM after 24 hrs by DNA microarray analysis. It counts as functional.
The test system of data set [2] is MRC5. As to the kind of experiment: Effect on CXCL1 gene expression in human MRC5 cells infected with Varicella zoster virus Ellen at 100 uM after 24 hrs by DNA microarray analysis. It is filed as functional.
Data set [3] concerns MRC5. The data set is described as follows: Effect on ACTA1 gene expression in human MRC5 cells infected with Varicella zoster virus Ellen at 100 uM after 24 hrs by DNA microarray analysis. It is filed as functional.
Data set [4] can be described thus: Cytotoxicity against human MRC5 cells assessed as inhibition of cell viability after 24 hrs by MTT assay. It counts as cell-based. In general terms: Tetrazolium dyes change colour on reduction, which living cells bring about.
Data set [5] has as its system MRC5. The data set is described as follows: Effect on RPL37A gene expression in human MRC5 cells infected with Varicella zoster virus Ellen at 100 uM after 24 hrs by DNA microarray analysis. It is filed as functional.
In data set [6] the test system is MRC5. As to the kind of experiment: Effect on CDC27 gene expression in human MRC5 cells infected with Varicella zoster virus Ellen at 100 uM after 24 hrs by DNA microarray analysis. It counts as functional.
The test system of data set [7] is MRC5. The data set is described as follows: Effect on KCNS3 gene expression in human MRC5 cells infected with Varicella zoster virus Ellen at 100 uM after 24 hrs by DNA microarray analysis. It counts as functional.
Data set [8] concerns MRC5. As to the kind of experiment: Effect on EIF2B1 gene expression in human MRC5 cells infected with Varicella zoster virus Ellen at 100 uM after 24 hrs by DNA microarray analysis. It is filed as functional.
For data set [9], the system named is MRC5. As to the kind of experiment: Effect on ZMYND15 gene expression in human MRC5 cells infected with Varicella zoster virus Ellen at 100 uM after 24 hrs by DNA microarray analysis. It counts as functional.
Data set [10] deals with MRC5. As to the kind of experiment: Effect on TPM2 gene expression in human MRC5 cells infected with Varicella zoster virus Ellen at 100 uM after 24 hrs by DNA microarray analysis. It is filed as functional.
In data set [11] the test system is MRC5. As to the kind of experiment: Effect on SNRPB gene expression in human MRC5 cells infected with Varicella zoster virus Ellen at 100 uM after 24 hrs by DNA microarray analysis. It counts as functional.
Data set [12] deals with MRC5. As to the kind of experiment: Effect on SLC20A2 gene expression in human MRC5 cells infected with Varicella zoster virus Ellen at 100 uM after 24 hrs by DNA microarray analysis. It counts as functional.
Data set [13] has as its system MRC5. As to the kind of experiment: Effect on CACNB4 gene expression in human MRC5 cells infected with Varicella zoster virus Ellen at 100 uM after 24 hrs by DNA microarray analysis. It counts as functional.
The subject of data set [14] is MRC5. As to the kind of experiment: Effect on RNF43 gene expression in human MRC5 cells infected with Varicella zoster virus Ellen at 100 uM after 24 hrs by DNA microarray analysis. It counts as functional.
Data set [15] deals with MRC5. As to the kind of experiment: Effect on MT1M gene expression in human MRC5 cells infected with Varicella zoster virus Ellen at 100 uM after 24 hrs by DNA microarray analysis. It is filed as functional.
Data set [16] deals with MRC5. As to the kind of experiment: Cytotoxicity against human MRC5 cells assessed as inhibition of cell viability at >1000 uM after 24 hrs by MTT assay. It counts as cell-based. To be noted: mrc5, 24 h.
A short description of data set [17]: Antiviral coefficient, ratio of CC50 for human MRC5 cells to IC50 for Varicella zoster virus Ellen infected in human MRC5 cells. It is filed as functional.
The subject of data set [18] is MRC5. The data set is described as follows: Effect on MRPS18B gene expression in human MRC5 cells infected with Varicella zoster virus Ellen at 100 uM after 24 hrs by DNA microarray analysis. It is filed as functional.
Data set [19] relates to MRC5. The data set is described as follows: Effect on KRT5 gene expression in human MRC5 cells infected with Varicella zoster virus Ellen at 100 uM after 24 hrs by DNA microarray analysis. It is filed as functional.
Data set [20] concerns MRC5. As to the kind of experiment: Effect on ACVR1 gene expression in human MRC5 cells infected with Varicella zoster virus Ellen at 100 uM after 24 hrs by DNA microarray analysis. It is filed as functional.
Data set [21] relates to MRC5. The data set is described as follows: Effect on PSME1 gene expression in human MRC5 cells infected with Varicella zoster virus Ellen at 100 uM after 24 hrs by DNA microarray analysis. It counts as functional.
Data set [22] concerns MRC5. As to the kind of experiment: Effect on ADCY8 gene expression in human MRC5 cells infected with Varicella zoster virus Ellen at 100 uM after 24 hrs by DNA microarray analysis. It is filed as functional.
The nature of data set [23]: Antiviral coefficient, ratio of CC90 for human MRC5 cells to IC90 for Varicella zoster virus Ellen infected in human MRC5 cells. It is filed as functional.
The test system of a further data set is Human alphaherpesvirus 3. As to the kind of experiment: Antiviral activity against Varicella zoster virus Ellen infected in human MRC5 cells assessed as inhibition of viral replication by viral reduction plaque assay. The note with it: Human alphaherpesvirus 3, Ellen. It counts as functional, organism-based.
In data set [24] the test system is MRC5. As to the kind of experiment: Effect on SAP18 gene expression in human MRC5 cells infected with Varicella zoster virus Ellen at 100 uM after 24 hrs by DNA microarray analysis. It counts as functional.

The CC50 is the concentration giving 50% cytotoxicity. As usually defined, the IC50 is the concentration that inhibits the measured activity by half. For orientation: IC90 means the concentration needed for an effect of 90%. As for `CC(C)CC(=O)[C@@H](O)Cc1ccccc1`, the “fold change (FC)” value was 0.642 in the data set with MRC5 [1]; 0.544 in the data set with MRC5 [2]; 0.545 in the data set on MRC5 [3]; -1.282 in the data set with MRC5 [5]; 0.823 with MRC5 [6]; 0.673 in the data set on MRC5 [7]. The “fold change (FC)” value is listed as -1.402 in the data set on MRC5 [8]; 0.577 with MRC5 [9]; -1.336 in the data set on MRC5 [10]; -1.193 with MRC5 [11]; 0.675 in the data set with MRC5 [12]; 0.741 in the data set on MRC5 [13]. For the same molecule, the “fold change (FC)” value with MRC5 [14] is given as -1.092; with MRC5 [15], -1.153; with MRC5 [18] it was -1.168; in the data set on MRC5 [19], 0.566; in the data set with MRC5 [20], -1.105; in the data set with MRC5 [21], 0.576. For the same molecule, the “fold change (FC)” value was -1.328 in the data set with MRC5 [22] and -1.128 in the data set on MRC5 [24]. In addition, the CC50 at 24 h in [4] amounted to 765 µM. Moreover, in data set [4], the CC90 at 24 h was 3880 µM. The Activity entry in the data set with MRC5 [16] is “Toxic”. In addition, the “Ratio CC50/IC50” value in data set [17] came to 13.2. The Ratio in data set [23] amounted to 35.6. Further, the half-inhibitory concentration (IC50) in the data set on Human alphaherpesvirus 3 turned out to be 58 µM. The IC90 with Human alphaherpesvirus 3 turned out to be 109 µM.
In the case of `Nc1nc2c(ncn2COCCO)c(=O)[nH]1` [ACYCLOVIR], the IC50 with Human alphaherpesvirus 3 came to 13 µM.
With `Nc1nc(O)c2ncn(CCC(CO)CO)c2n1` [PENCICLOVIR], in the data set on Human alphaherpesvirus 3, the 50% inhibitory concentration (IC50) worked out at 16 µM.
